Laboratory results: US20220218757A1, “THERAPEUTICALLY ACTIVE CELLS AND EXOSOMES” (Cedars-Sinai Medical Center, priority 2019, published 2022)

What was measured:
[1] = test system: immortalized CDCs; type: cell-based, Human
Protocol: (§1) Cells were exposed to 5 μM of 6-bromoindirubin-3′-oxime (BIO, Sigma-Aldrich) or 4-Benzyl-2-(naphthalene-1-yl)-[1,2,4]thiadiazolidine-3,5-dione (Tideglusib, Sigma-Aldrich) for 48 or 72 hours in complete media.

[2] = test system: CDC EVs; test: qPCR of miRs in EVs from BIO-exposed versus vehicle-exposed CDCs; type: cell-based, Human; conditions: EVs of LP, LPL, imCDC exposed to BIO vs vehicle
Protocol: Extracellular Vesicles were harvested from primary CDCs at passage 5 or older passages from transduced cells using a hypoxic cycling method used previously. Briefly, cells were grown to confluence at 20% O2/5% CO2 at 37° C., and then cells were serum-free at 2% O2/5% CO2 at 37° C. overnight after one wash. Conditioned media was collected and filtered through 0.45 μm filter to remove apoptotic bodies and cellular debris and frozen for later use at −80° C. EVs were purified using centrifugal ultrafiltration with a 1000 KDa molecular weight cutoff filter (Sartorius). EV preparations were analyzed through Malvern Nanosight NS300 Instrument (Malvern Instruments) with the following acquisition parameters: camera levels of 15, detection level less than or equal to 5, number of videos taken 4, and video length of 30 s.
Cell RNA was isolated using a miRNeasy Mini Kit (Qiagen). Exosome RNA was isolated using the Urine Exosome RNA Isolation Kit (Norgen Biotek Corp.). Reverse transcription was performed using High Capacity RNA to cDNA (Thermo Fisher Scientific) or TaqMan® microRNA Reverse Transcription Kit (Applied Biosystems) for RNA and micro RNA, respectively. […] Samples were processed and analyzed using a QuantStudio™ 12K Flex Real-Time PCR system and each reaction was performed in triplicate samples (with housekeeping genes hprt1 for mRNA and miR23a for microRNA). […]

[3] = test system: EXTL1; test: Western blot of EXTL1 protein; type: cell-based, Human; conditions: CDC (LP) exposure to BIO
Protocol: (§2) Cell lysates were collected for ELISA and western blot. For ELISA, 4×10^5 cells were collected and pelleted at 1,000 rpm for 5 min at 4° C. Cell pellets were lysed in 1× lysis buffer (Affymetrix eBioscience InstantOne ELISA kit) and incubated for 10 min at room temperature with regular agitation. For western blot, cells were pelleted and resuspended in 1× RIPA buffer (Alfa Aesar) with protease inhibitor on ice for 30 min. Protein lysates were isolated by centrifugation at 14,000 rpm for 15 min at 4° C. Protein concentration was measured using a DC™ Protein Assay kit (Bio-Rad).

[4] = test system: CDCs; test: RNA sequencing and qPCR of BIO-exposed versus vehicle-exposed CDCs (LP, LPL, imCDC); type: cell-based, Human
Protocol: Cell RNA was isolated using a miRNeasy Mini Kit (Qiagen). Exosome RNA was isolated using the Urine Exosome RNA Isolation Kit (Norgen Biotek Corp.). Reverse transcription was performed using High Capacity RNA to cDNA (Thermo Fisher Scientific) or TaqMan® microRNA Reverse Transcription Kit (Applied Biosystems) for RNA and micro RNA, respectively. Real-time PCR was performed using TaqMan Fast Advanced Master Mix and the appropriate TaqMan® Gene Expression Assay (Thermo Fisher Scientific). Samples were processed and analyzed using a QuantStudio™ 12K Flex Real-Time PCR system and each reaction was performed in triplicate samples (with housekeeping genes hprt1 for mRNA and miR23a for microRNA). The gene expression assays/microRNAs used in this study were as follows (Thermo Fisher Scientific):
Cell and exosome RNA samples were sequenced at the Cedars Sinai Genomics Core. Total RNA and Small RNA were analyzed using an Illumina NextSeq 500 platform for cell and exosome samples respectively.
as §1
To understand how β-catenin drives potency, the transcriptomes of LP CDCs to those of the same cell batches after exposure to BIO were compared. As stated above, three scenarios associated with low potency were identified: donor-related, in which all lots from a given donor lack potency; lot-dependent, in which some lots are potent and others are not; and immortalized CDCs (imCDCs). Using RNA sequencing, LP cells from each scenario were compared after exposure to BIO versus vehicle alone. […] Differential expression of microRNAs (miRs) between the two groups further identified a cognate miR coregulated with mest (miR-335; FIG. 3C, FIGS. 9D and 9E). […] Mest modulates Wnt/β-catenin signaling indirectly through glucosyltransferases that prevent LRP5/6 receptor maturation. […]

[5] = test system: SCID/beige mice with acute myocardial infarction; test: Mouse acute MI model (echocardiography, Masson's trichrome histology, mortality); type: in vivo; conditions: for myocardial function in mice with MI, drugs given independent of CDCs: relative to controls
Protocol: Acute myocardial infarction was induced in three-month-old male severe combined immunodeficient (SCID)/beige mice (n=5-7 animals per group). Within 10 min of coronary ligation, 1×10^5 cells, EVs, drugs (or vehicle) were injected intramyocardially.
Echocardiography. Echocardiography study was performed in the SCID/beige at 24 hr (baseline) and three weeks after surgery using Vevo 3100 or 770 Imaging System (Visual Sonics) as described. The average of the left ventricular ejection fraction was analyzed from multiple left ventricular end-diastolic and left ventricular end-systolic measurements.
Animals were sacrificed 3 weeks after MI induction. Hearts were harvested and a transverse cut was made slightly above the MI suture. The apical portion was then embedded in optimum cutting temperature solution in a base mold/embedding ring block (Tissue Tek). Blocks were immediately frozen by submersion in cold 2-methylbutane. Hearts were sectioned at a thickness of 5 μm.
Two slides containing a total of four sections per heart were stained using Masson's trichrome stain. In brief, sections were treated overnight in Bouin's solution. Slides were then rinsed for 10 min under running water and stained with Weigert's hematoxylin for 5 min. Slides were then rinsed and stained with scarlet-acid fuchsin for 5 min and rinsed again. Slides were then stained with phosphotungstic/phosphomolybdic, aniline blue, and 2% acetic acid for 5 min each. Slides were then rinsed, dried, and mounted using DPX mounting media.

[6] = test system: CDCs; test: Flow cytometry of CD90, CD105, DDR2 and LRP5/6; type: cell-based, Human
Protocol: as §1
Cells were harvested and counted (2×10^5 cells per condition). Cells were washed with 1% bovine serum albumin (BSA) in 1× phosphate-buffered saline (PBS) and stained with the appropriate antibody (BD Pharmingen) for 1 hr at 4° C. Cells were then washed again and resuspended in 1% BSA in 1×PBS. BD Cytofix/Cytoperm™ kit was used for cell permeabilization before staining. Flow analysis was done using a BD FACS Canto™ II instrument.

[7] = test system: β-catenin; test: Total β-catenin ELISA of cells; type: cell-based, Human; conditions: for duration / decay of effect on β-catenin after GSK3β inhibition: CDCs, BIO (reversible) vs tideglusib (irreversible)
Protocol: as §2, §1
Total β-catenin ELISA was performed according the protocol described with a final sample concentration of 0.01 mg/ml and positive control of 0.1 mg/ml (Affymetrix eBioscience InstantOne™ ELISA).

Row | Structure (SMILES) | cell growth and viability [1] | EV levels of miR-335 [2] | EXTL1 protein levels [3] | miR-335 expression in cells ([4]; BIO vs vehicle, LP, LPL and imCDC) | downregulation of mest ([4]; BIO vs vehicle, fold changes pooled over LP, LPL and imCDC) | LRP5/6 transcripts ([4]; BIO-exposed LP, LPL and imCDCs, qPCR) | potency of immortalized CDCs after exposure to BIO ([5]; imCDC pre-exposed to BIO, then injected) | myocardial function in mice with MI, drugs given independent of CDCs [5] | expression of CD90 ([6]; BIO-exposed LP cells) | expression of CD105 ([6]; BIO-exposed LP cells) | expression of DDR2 ([6]; BIO-exposed LP cells) | LRP5/6 level (flow cytometry) ([6]; LP CDCs exposed to BIO) | concentration at which BIO is maximally effective in CDCs (β-catenin ELISA) ([7]; CDCs exposed to increasing concentrations of BIO) | duration / decay of effect on β-catenin after GSK3β inhibition [7] | β-catenin levels ([7]; LP CDC line exposed to 5 μM BIO vs vehicle)
1 | O=C1Nc2cc(Br)ccc2/C1=C1/Nc2ccccc2/C1=N\O [BIO, 6-bromoindirubin-3′-oxime] | cell growth and viability were undermined | decreased significantly | decreased EXTL1 protein levels | downregulated | ~30 fold | unchanged | restored potency | Neither BIO nor the canonical Wnt inhibitor JW67 significantly altered myocardial function | decreased the expression of CD90 | without affecting | without affecting | upregulated its glycosylation target LRP5/6 (although that difference was not statistically significant | 5 µM | more rapid decay of effect | increase β-catenin levels
2 | O=C1Nc2ccccc2C12OCC1(CO2)COC2(OC1)C(=O)Nc1ccccc12 (centres unmarked) [JW67] |  |  |  |  |  |  |  | Neither BIO nor the canonical Wnt inhibitor JW67 significantly altered myocardial function |  |  |  |  |  |  | 
3 | O=c1sn(-c2cccc3ccccc23)c(=O)n1Cc1ccccc1 [Tideglusib, 4-Benzyl-2-(naphthalene-1-yl)-[1,2,4]thiadiazolidine-3,5-dione] |  |  |  |  |  |  |  |  |  |  |  |  |  | directionally similar but longer-lasting effects | 
